Data: US4546076A, “Enzymatic process for the determination of beta-lactam antibiotics” (U C B Societe Anonyme, priority 1982, dated 1985)

Legend:
Type in all cases: biochemical
[1] = target: T1, D-alanyl-D-alanine-carboxypeptidase produced by Actinomadura R 39 (enzyme R 39), immobilized (Actinomadura sp., UniProt P39045); assay: Dosage of cephalosporin C in serum with immobilized enzyme R 39 (Example 3)
T1 construct: which is excreted by Actinomadura R 39 when this microorganism; made in house; host or cells: Actinomadura R 39 (natural producer; deposit Institut Pasteur No. I-127), purified as in Frere et al., Biochem. J. 143 (1974) 233-240
T1 sequence (P39045 50-538): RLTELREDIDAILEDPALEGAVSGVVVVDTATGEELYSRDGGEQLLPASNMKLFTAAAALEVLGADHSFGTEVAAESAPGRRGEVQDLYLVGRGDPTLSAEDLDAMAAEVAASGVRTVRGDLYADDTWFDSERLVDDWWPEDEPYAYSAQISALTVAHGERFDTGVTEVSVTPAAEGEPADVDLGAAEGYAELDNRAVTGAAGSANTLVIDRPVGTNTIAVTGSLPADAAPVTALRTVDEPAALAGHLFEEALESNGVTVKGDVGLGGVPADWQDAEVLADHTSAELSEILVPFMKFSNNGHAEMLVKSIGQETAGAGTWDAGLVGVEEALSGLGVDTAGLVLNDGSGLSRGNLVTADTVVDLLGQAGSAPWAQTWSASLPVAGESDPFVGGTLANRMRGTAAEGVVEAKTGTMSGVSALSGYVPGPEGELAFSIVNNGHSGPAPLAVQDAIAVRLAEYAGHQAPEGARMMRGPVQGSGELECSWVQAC
Protocol: (§1) A series of 1 ml milk samples each containing a known concentration of penicillin G and two 1 ml milk samples (blank and control) not containing penicillin G are prepared.
(§2) 5.5 mg of immobilized enzyme R 39 (=3 picomols of enzyme) are added to each sample and the mixture is incubated for 20 minutes at 37° C.
(§3) The milk is then separated from the immobilized enzyme by filtration and the immobilized enzyme is washed three times with 1 ml of 0.1M Hepes buffer (pH=7.7) containing 0.1M NaCl and 0.05M MgCl2.
(§4) Either 20 μl of 0.1M Hepes buffer (pH=7.7) containing 0.1M NaCl and 0.05M MgCl2 and 10 μl of the substrate solution (in the case of the control sample and the samples containing penicillin G), or 20 μl of the Hepes buffer and 10 μl of water (in the case of the blank sample), are then added to the separated and washed immobilized enzyme. The mixture is incubated for 30 minutes at 37° C.
(§5) At the end of this incubation, 2 μl of the D-amino acid oxidase suspension, 60 μl of the FAD solution, 10 μl of the peroxidase solution and 5 μl of the o-dianisidine solution are added respectively to the product obtained; the mixture is then incubated again for 10 minutes at 37° C.
(§6) The optical density of the colored solutions obtained is then measured on a spectrophotometer. For this purpose, 1 ml of a methanol/water solution (proportions 1:1) is added to the cell and the optical density is measured at 460 nm.
(§7) The optical density value found for the blank sample is subtracted from the optical density values found respectively for the control sample and for the other samples. Finally, the percentage residual enzymatic activity is calculated for each sample from the optical density values thus obtained.
The procedure of Example 1 is followed, using the same reagents but replacing the 1 ml milk samples by 1 ml serum samples containing each a known concentration of cephalosporin C.

[2] = target: T1, D-alanyl-D-alanine-carboxypeptidase produced by Actinomadura R 39 (enzyme R 39), immobilized; assay: Dosage of cephalosporin C in serum with immobilized enzyme R 39 at higher temperature (Example 4)
Protocol: The procedure of Example 3 is followed but each incubation is carried out at 47° C. and at half the time.
Moreover, to each ml sample of serum, there is previously added 100 μl of 0.5M (pH 7.7) Hepes buffer containing 0.5M NaCl and 0.25M MgCl2.

[3] = target: T1, D-alanyl-D-alanine-carboxypeptidase produced by Actinomadura R 39 (enzyme R 39), immobilized; assay: Determination of penicillin G in milk with immobilized enzyme R 39 (Example 1); conditions: for coloration observed / optical density at 460 nm / optical density found minus optical density of the blank sample / percentage residual enzymatic activity: 1 ml milk; for percentage residual enzymatic activity: 20 min
Protocol: as §1, §2, §3, §4, §5, §6, §7

[4] = target: T1, D-alanyl-D-alanine-carboxypeptidase produced by Actinomadura R 39 (enzyme R 39), immobilized; assay: Determination of penicillin G in serum with immobilized enzyme R 39 (Example 2); conditions: 1 ml serum; for percentage residual enzymatic activity: 20 min
Protocol: as §1, §2, §3, §4, §5, §6, §7
(§8) The procedure of Example 1 is followed, using the same reagents but replacing the 1 ml milk samples by 1 ml serum or 1 ml urine samples.

[5] = target: T1, D-alanyl-D-alanine-carboxypeptidase produced by Actinomadura R 39 (enzyme R 39), immobilized; assay: Determination of penicillin G in urine with immobilized enzyme R 39 (Example 2); conditions: 1 ml urine; for percentage residual enzymatic activity: 20 min
Protocol: as §1, §2, §3, §4, §5, §6, §7, §8

[6] = cephalosporin C 1 ng/ml, 1 ml serum, 37° C.
[7] = cephalosporin C 2 ng/ml, 1 ml serum, 37° C.
[8] = cephalosporin C 10 ng/ml, 1 ml serum, 37° C.
[9] = cephalosporin C 1 ng/ml, 1 ml serum, each incubation at 47° C. and half the time
[10] = cephalosporin C 2 ng/ml, 1 ml serum, each incubation at 47° C. and half the time
[11] = cephalosporin C 10 ng/ml, 1 ml serum, each incubation at 47° C. and half the time
[12] = penicillin G 0.0005 I.U./ml, 1st series
[13] = penicillin G 0.0005 I.U./ml, 2nd series
[14] = penicillin G 0.0010 I.U./ml, 1st series
[15] = penicillin G 0.0010 I.U./ml, 2nd series
[16] = penicillin G 0.0015 I.U./ml, 2nd series
[17] = penicillin G 0.0020 I.U./ml, 1st series
[18] = penicillin G 0.0020 I.U./ml, 2nd series
[19] = penicillin G 0.0041 I.U./ml, 1st series
[20] = penicillin G 0.0082 I.U./ml, 1st series

CC(=O)OCC1=C(C(=O)O)N2C(=O)[C@@H](NC(=O)CCC[C@@H](N)C(=O)O)[C@H]2SC1 [cephalosporin C]
remaining activity at 0.001 µg/mL ([1]; 20 min, read-out: percentage residual enzymatic activity): 44% | remaining activity at 0.002 µg/mL ([1]; 20 min, cephalosporin C 2 ng/ml, 1 ml serum, 37° C., read-out: percentage residual enzymatic activity): 8% | remaining activity at 0.01 µg/mL ([1]; 20 min, cephalosporin C 10 ng/ml, 1 ml serum, 37° C., read-out: percentage residual enzymatic activity): 0% | coloration observed [1, 6]: light yellow | optical density at 460 nm [1, 6]: 0.085 | optical density found minus optical density of the blank sample [1, 6]: 0.055 | coloration observed [1, 7]: light yellow | optical density at 460 nm [1, 7]: 0.040 | optical density found minus optical density of the blank sample [1, 7]: 0.010 | coloration observed [1, 8]: light yellow | optical density at 460 nm [1, 8]: 0.030 | optical density found minus optical density of the blank sample [1, 8]: 0.000 | remaining activity at 0.01 µg/mL ([2]; 10 min, read-out: percentage residual enzymatic activity): 0% | remaining activity at 0.001 µg/mL ([2]; 10 min, cephalosporin C 1 ng/ml, 1 ml serum, each incubation at 47° C. and half the time, read-out: percentage residual enzymatic activity): 41% | remaining activity at 0.002 µg/mL ([2]; 10 min, cephalosporin C 2 ng/ml, 1 ml serum, each incubation at 47° C. and half the time, read-out: percentage residual enzymatic activity): 0% | coloration observed [2, 9]: light brown | optical density at 460 nm [2, 9]: 0.095 | optical density found minus optical density of the blank sample [2, 9]: 0.060 | coloration observed [2, 10]: light yellow | optical density at 460 nm [2, 10]: 0.035 | optical density found minus optical density of the blank sample [2, 10]: 0.000 | coloration observed [2, 11]: light yellow | optical density at 460 nm [2, 11]: 0.040 | optical density found minus optical density of the blank sample [2, 11]: 0.005

CC1(C)S[C@@H]2[C@H](NC(=O)Cc3ccccc3)C(=O)N2[C@H]1C(=O)O [penicillin G, benzylpenicillin]
coloration observed [3, 12]: brown | optical density at 460 nm [3, 12]: 0.170 | optical density found minus optical density of the blank sample [3, 12]: 0.135 | percentage residual enzymatic activity [3, 12]: 82% | coloration observed [3, 13]: yellow-brown | optical density at 460 nm [3, 13]: 0.145 | optical density found minus optical density of the blank sample [3, 13]: 0.110 | percentage residual enzymatic activity [3, 13]: 69% | coloration observed [3, 14]: yellow-brown | optical density at 460 nm [3, 14]: 0.150 | optical density found minus optical density of the blank sample [3, 14]: 0.115 | percentage residual enzymatic activity [3, 14]: 69% | coloration observed [3, 15]: yellow-brown | optical density at 460 nm [3, 15]: 0.100 | optical density found minus optical density of the blank sample [3, 15]: 0.065 | percentage residual enzymatic activity [3, 15]: 41% | coloration observed [3, 16]: yellow | optical density at 460 nm [3, 16]: 0.055 | optical density found minus optical density of the blank sample [3, 16]: 0.020 | percentage residual enzymatic activity [3, 16]: 12% | coloration observed [3, 17]: light yellow | optical density at 460 nm [3, 17]: 0.035 | optical density found minus optical density of the blank sample [3, 17]: 0.000 | percentage residual enzymatic activity [3, 17]: 0% | coloration observed [3, 18]: light yellow | optical density at 460 nm [3, 18]: 0.040 | optical density found minus optical density of the blank sample [3, 18]: 0.005 | percentage residual enzymatic activity [3, 18]: 3% | coloration observed [3, 19]: light yellow | optical density at 460 nm [3, 19]: 0.040 | optical density found minus optical density of the blank sample [3, 19]: 0.005 | percentage residual enzymatic activity [3, 19]: 3% | coloration observed [3, 20]: light yellow | optical density at 460 nm [3, 20]: 0.035 | optical density found minus optical density of the blank sample [3, 20]: 0.000 | percentage residual enzymatic activity [3, 20]: 0% | residual enzymatic activity ([3]; sample containing 0.002 I.U. or more per ml of milk): zero | concentration determined visually (light yellow coloration) [4]: at least 0.003 I.U./ml | coloration observed ([4]; penicillin G 0.003 I.U./ml): light yellow | optical density at 460 nm ([4]; penicillin G 0.003 I.U./ml): 0.035 | optical density found minus optical density of the blank sample ([4]; penicillin G 0.003 I.U./ml): 0.005 | percentage residual enzymatic activity ([4]; penicillin G 0.003 I.U./ml): 4% | coloration observed ([4]; penicillin G 0.010 I.U./ml): light yellow | optical density at 460 nm ([4]; penicillin G 0.010 I.U./ml): 0.030 | optical density found minus optical density of the blank sample ([4]; penicillin G 0.010 I.U./ml): 0.000 | percentage residual enzymatic activity ([4]; penicillin G 0.010 I.U./ml): 0% | concentration determined visually (light yellow coloration) [5]: at least 0.003 I.U./ml | coloration observed ([5]; penicillin G 0.003 I.U./ml): light yellow | optical density at 460 nm ([5]; penicillin G 0.003 I.U./ml): 0.040 | optical density found minus optical density of the blank sample ([5]; penicillin G 0.003 I.U./ml): 0.010 | percentage residual enzymatic activity ([5]; penicillin G 0.003 I.U./ml): 8% | coloration observed ([5]; penicillin G 0.010 I.U./ml): light yellow | optical density at 460 nm ([5]; penicillin G 0.010 I.U./ml): 0.035 | optical density found minus optical density of the blank sample ([5]; penicillin G 0.010 I.U./ml): 0.005 | percentage residual enzymatic activity ([5]; penicillin G 0.010 I.U./ml): 4%
